How the values were obtained:
[1] = tested on: transplantation rejection; conditions: in vivo; cited from earlier work
[2] = tested on: B-cell; conditions: cited from earlier work
[3] = tested on: NOD mouse; conditions: cited from earlier work
[4] = tested on: DBA/1 mouse with collagen-induced rheumatic arthritis; assay: Laboratory test: hematoxylin and eosin staining of interphalangeal and knee joints; type: in vivo; conditions: H&E staining
From the text: The ininter phalangeal joints and knee joints from DBA/1 mouse of the prodigiosin-treated group and the control group, not treated with prodigiosin, in Example 3 were subjected to a laboratory test. The ininter phalangeal joints and knee joints were removed on the last day of the administration and stained with hematoxylin and eosin.

[5] = tested on: DBA/1 mouse with collagen-induced rheumatic arthritis; assay: Crisis level (clinical index) of collagen-induced rheumatic arthritis; type: in vivo
Method: 6 week-old male DBA/1 mouse supplied from Charles River Japan (Japan) was adapted until 8 to 12 week-old and then, used in the experiment. On the first day of the experiment, the mouse was administered subcutaneously with 100 μl of collagen/complete freund's adjuvant at its tail. The collagen/complete freund's adjuvant was prepared by mixing a solution of collagen (bovine type II) dissolved in 0.05 M acetic acid at a concentration of 2 mg/ml with complete freund's adjuvant at the same concentration. At 21st day of the experiment, 100 μg of collagen was intraperitoneally administered and at 28th day of the experiment, 40 μg of lipopolysaccharide was intraperitoneally administered to promote arthritis crisis. The crisis level of rheumatic arthritis was examined with the naked eye and expressed as a clinical index. That is, 0=none, 0.5=flushed and swollen toe, 1=mild crisis, 1.5=moderate crisis, 2 or more=severe crisis and joint stiffness. Four legs of the DBA/1 mouse were examined for their levels of arthritis crisis.
In order to confirm the therapeutic effect of prodigiosin on rheumatic arthritis, three types of experiments were performed according to the following strategies: (1) 10 mg/kg of prodigiosin was intraperitoneally administered every other day from the 29th day of the experiment, when rheumatic arthritis lesion was developed, to 65th day, the last day of the experiment; (2) 10 mg/kg of prodigiosin was intraperitoneally administered every other day from the 29th day of the experiment, when rheumatic arthritis lesion was developed, to 36th day of the experiment; and (3) 10 mg/kg of prodigiosin was intraperitoneally administered every other day from the 36th day of the experiment, when rheumatic arthritis was in progress, to 65th day, the last day of the experiment.
(§1) In this example, the DBA/1 mouse with collagen-induced rheumatic arthritis, prepared in Example 1, were administered intraperitoneally with 10 mg/kg of prodigiosin every other day from the 29th day of the experiment to 65th day of the experiment. The DBA/11 mouse treated with prodigiosin according to the above method and the DBA/1 mouse non-treated with prodigiosin were examined for their crisis level of rheumatic arthritis according to time.
as §1, with “order to investigate the change after suspension of administration of prodigiosin and the influence of prodigiosin on early rheumatic arthritis,” for “this example,”, “36th” for “65th”, “DBA/1” for “DBA/11”, “time. […] Accordingly, it is noted that prodigiosin has effects preventing and treating rheumatic arthritis.” for “time.”
In order to investigate the influence of prodigiosin on rheumatic arthritis which had developed and progressed, the DBA/1 mouse with collagen-induced rheumatic arthritis, prepared in Example 1, were administered intraperitoneally with 10 mg/kg of prodigiosin every other day from the 36th day to 65th day after starting the experiment. The DBA/1 mouse treated with prodigiosin according to the above method and the DBA/1 mouse non-treated with prodigiosin were examined for their crisis level of rheumatic arthritis according to time.

[6] = tested on: animal; conditions: 10 to 30 mg/kg for 16 weeks; cited from earlier work
[7] = tested on: T-cell; conditions: cited from earlier work
[8] = tested on: cytokines TNF-α, IL-1β, IL-6, IL-12, IL-2, IFN-γ, IL4, IL-10; assay: Cytokine expression levels in spleen cells by RT-PCR; type: in vivo; conditions: spleen cells of treated DBA/1 mouse, 10 mg/kg i.p. every other day
Method: The spleen cells were removed from DBA/1 mouse of the prodigiosin-treated group and the control group, not treated with prodigiosin, in Example 3 and subjected to RNA separation. Then, the expression levels of cytokine were measured using RT-PCR (Reverse transcriptase polymerase chain reaction). The expression levels of inflammatory cytokines such as TNF-α, IL-1β, IL-6, IL-12; cytokines derived from Th1 cells such as IL-2, IFN-γ; cytokines derived from Th2 cells such as IL4, IL-10 were measured.

## CCCCCC1=C/C(=C/c2[nH]c(-c3ccc[nH]3)cc2OC)N=C1C [prodigiosin]
[1]
  effect on transplantation rejection: therapeutic effects
[2]
  antibody production and proliferation of B-cell: does not inhibit
[3]; 10 mg/kg intraperitoneally every other day
  diabetes crisis of the NOD mouse: completely suppressed
[3]; NOD mouse
  insulitis (lymphocyte infiltration into pancreatic islet): suppressed insulitis
[4]; groups of Example 3 (10 mg/kg i.p., 29th to 36th day)
  histology of interphalangeal joint and knee joint: Normal tissues
[4]; groups of Example 3
  joint destruction in the knee joint: not observed
  lymphocyte infiltration into the interphalangeal joint: not observed
[5]; 10 mg/kg i.p. every other day from 29th to 36th day, after suspension of administration
  crisis level of rheumatic arthritis after suspension of administration: about 1
[5]; 10 mg/kg i.p. every other day from 29th to 36th day, by the 38th day
  crisis level of rheumatic arthritis by the 38th day: ≤ 0.5
[5]; 10 mg/kg i.p. every other day from 29th to 65th day, clinical index 0 to 8 (four legs)
  crisis level of rheumatic arthritis: ≤ 0.5
[5]; 10 mg/kg i.p. every other day from 36th to 65th day, at 36 day (start of administration)
  crisis level of rheumatic arthritis at 36 day: about 2
[5]; 10 mg/kg i.p. every other day from 36th to 65th day, progressive arthritis
  change of crisis level after 36 day: no more increase
[6]
  toxicity in animal: does not show toxicity
[7]
  proliferation and activity of T-cell: strongly inhibit
[7]; concentration where immunosuppression occurs
  toxicity at a concentration where immunosuppression occurs: not showing toxicity
[8]
  expression levels of cytokines (TNF-α, IL-1β, IL-6, IL-12, IL-2, IFN-γ, IL4, IL-10): reduced the expression levels of all kinds of cytokines
